Measurements taken from patent US6380201B1, “Methods of treating or ameliorating the symptoms of common cold or allergic rhinitis with serotonin 5-HT1F agonists” (Eli Lilly and Company, priority 1997, dated 2002).
Structures can show the parent of a compound that is named as a salt.

Tests used:
5-HT1F receptor = biological target: T1, 5-HT1F receptor (Homo sapiens, UniProt P30939); settings: cited from earlier work
T1 sequence (P30939 1-366): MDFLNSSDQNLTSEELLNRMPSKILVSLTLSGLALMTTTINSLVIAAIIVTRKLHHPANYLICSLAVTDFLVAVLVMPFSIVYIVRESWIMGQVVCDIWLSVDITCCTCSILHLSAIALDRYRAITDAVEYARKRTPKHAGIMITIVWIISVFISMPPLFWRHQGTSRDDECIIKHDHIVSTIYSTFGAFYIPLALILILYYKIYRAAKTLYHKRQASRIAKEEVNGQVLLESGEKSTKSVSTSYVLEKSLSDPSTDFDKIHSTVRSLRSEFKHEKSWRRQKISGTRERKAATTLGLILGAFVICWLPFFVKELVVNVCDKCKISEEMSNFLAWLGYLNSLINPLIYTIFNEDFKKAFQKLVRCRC

human 5-HT1D receptor = human 5-HT1D receptor (Homo sapiens, UniProt P28221); settings: cited from earlier work
Sequence of human 5-HT1D receptor (P28221 whole entry): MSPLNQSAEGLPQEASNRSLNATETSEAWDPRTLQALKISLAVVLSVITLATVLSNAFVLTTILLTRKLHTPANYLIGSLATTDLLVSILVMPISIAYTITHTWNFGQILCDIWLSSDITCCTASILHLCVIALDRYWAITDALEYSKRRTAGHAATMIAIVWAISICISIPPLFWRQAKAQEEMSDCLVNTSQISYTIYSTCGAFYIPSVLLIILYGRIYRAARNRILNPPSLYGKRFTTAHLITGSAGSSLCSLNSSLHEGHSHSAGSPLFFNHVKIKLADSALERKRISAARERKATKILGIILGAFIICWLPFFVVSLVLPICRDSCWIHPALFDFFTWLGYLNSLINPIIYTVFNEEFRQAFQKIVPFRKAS

Row | Compound | melting point | further results
1 | CN1CCC(c2c[nH]c3ccc(N4C(=O)c5ccccc5C4=O)cc23)CC1.O=C(O)C(=O)O | 224 °C | –
2 | COc1ccc(Sc2ccc3[nH]cc(C4CCN(C)CC4)c3c2)cc1 | 160 to 162 °C | –
3 | CCN1CCC(c2c[nH]c3ccc(NC(=O)c4ccc(F)cc4)cc23)CC1.O=C(O)/C=C/C(=O)O | 152 to 155 °C | –
4 | Cc1ccc(C(=O)c2ccc3[nH]cc(C4CCN(C)CC4)c3c2)cc1 | 92 °C | –
5 | COc1ccccc1C(=O)Nc1ccc2[nH]cc(C3CCN(C)CC3)c2c1.O=C(O)/C=C/C(=O)O | 90 °C (dec.) | –
6 | CCN1CC=C(c2c[nH]c3ccc(NS(C)(=O)=O)cc23)CC1 | 218 to 219 °C (dec.) | –
7 | CN1CCC(c2c[nH]c3ccc(NC(=O)Cc4ccccc4)cc23)CC1.O=C(O)C(=O)O | < 90 °C | –
8 | CN1CCC(c2c[nH]c3ccc(NC(=O)c4cccc(Cl)c4)cc23)CC1.O=C(O)/C=C/C(=O)O | 185 °C (dec.) | –
9 | CN1CCC(c2c[nH]c3ccc(NS(=O)(=O)c4ccc(I)cc4)cc23)CC1 | > 250 °C | –
10 | CN1CC=C(c2c[nH]c3ccc(NC(=O)c4ccc(F)cc4Cl)cc23)CC1 | 212 to 222 °C | –
11 | CN1CCC(c2c[nH]c3ccc(C(=O)c4ccc(OC(F)(F)F)cc4)cc23)CC1 | 172 to 175 °C | –
12 | CCCCN1CC=C(c2c[nH]c3ccc(NS(C)(=O)=O)cc23)CC1 | 202 to 204 °C | –
13 | CCCCN1CCC(c2c[nH]c3ccc(NS(C)(=O)=O)cc23)CC1 | 78 °C | –
14 | CN1CCC(c2c[nH]c3ccc(SCc4ccccc4)cc23)CC1 | 138 to 141 °C | –
15 | CN1CCC(c2c[nH]c3ccc(Sc4ccc(Cl)cc4)cc23)CC1 | 148 to 150 °C | –
16 | CCCCC(=O)c1ccc2[nH]cc(C3CCN(C)CC3)c2c1.Cl | 242 to 245 °C | –
17 | CN1CCC(c2c[nH]c3ccc(Sc4ccccn4)cc23)CC1 | 83 °C | –
18 | CN1CCC(c2c[nH]c3ccc(Sc4ccccc4)cc23)CC1 | 147 to 150 °C | –
19 | CN1CCC(c2c[nH]c3ccc(C(=O)c4ccc5ccccc5c4)cc23)CC1 | 92 °C | –

Row | Compound | melting point | further results
20 | CN1CCC(c2c[nH]c3ccc(C(=O)c4ccccc4)cc23)CC1 | 101 °C | –
21 | CN1CCC(c2c[nH]c3ccc(NC(=O)c4ccccc4Cl)cc23)CC1.O=C(O)/C=C/C(=O)O | 209 °C (dec.) | –
22 | CN1CCC(c2c[nH]c3ccc(C(=O)c4ccc(F)cc4)cc23)CC1 | 89 °C | –
23 | CN1CC=C(c2cn(C)c3ccc(NS(C)(=O)=O)cc23)CC1 | 198 to 202 °C | –
24 | CN1CCC(c2c[nH]c3ccc(C(=O)Cc4ccccc4)cc23)CC1 | 69 °C | –
25 | CN1CCC(c2c[nH]c3ccc(NC(=O)c4ccco4)cc23)CC1.O=C(O)/C=C/C(=O)O | 114 °C (dec.) | –
26 | Cl.Clc1ccc(CCNC2CCc3[nH]c4ccc(OCc5ccccc5)cc4c3C2)cc1 (stereo not shown) | 238 to 240 °C | –
27 | CN1CCC(c2c[nH]c3ccc(N(S(=O)(=O)C(F)(F)F)S(=O)(=O)C(F)(F)F)cc23)CC1.Cl | 175 to 185 °C (dec.) | –
28 | CNS(=O)(=O)Cc1ccc2[nH]cc(CCN(C)C)c2c1 [Sumatriptan] | – | affinity (5-HT1F receptor): show affinity; affinity (human 5-HT1D receptor): high affinity
29 | CN1CCC(c2c[nH]c3ccc(NC(=O)c4ccc(Cl)cc4)cc23)CC1.O=C(O)/C=C/C(=O)O | 163 °C (dec.) | –
30 | CCS(=O)(=O)Nc1ccc2[nH]cc(C3=CCN(C)CC3)c2c1 | 224 to 226 °C | –
31 | NCCc1c[nH]c2ccc(C(N)=O)cc12 [5-carboxamidotryptamine] | – | affinity (5-HT1F receptor): low affinity
32 | CN1CC=C(c2c[nH]c3ccc(NS(C)(=O)=O)cc23)CC1 | 210 to 214 °C | –
33 | CN1CCC(c2c[nH]c3ccc(C(=O)c4ccc(Cl)cc4)cc23)CC1 | 133 °C | –
34 | CCC(=O)Nc1ccc2[nH]cc(C3=CCN(C)CC3)c2c1.O=C(O)/C=C/C(=O)O | 170 to 173 °C | –
35 | CN1CCC(c2c[nH]c3ccc(C(=O)c4ccc(C(F)(F)F)cc4)cc23)CC1 | 160 to 162 °C | –
36 | CCCN1CC=C(c2c[nH]c3ccc(NS(C)(=O)=O)cc23)CC1 | 217 to 218.5 °C (dec.) | –
37 | CN1CCC(c2c[nH]c3ccc(C(=O)c4ccccn4)cc23)CC1 | 90 °C | –

The next lines start with results.

Row | melting point | Compound | further results
38 | 215 to 220 °C | CN1CCC(c2c[nH]c3ccc(NC(=O)Nc4ccccc4)cc23)CC1.Cl | –
39 | 214 to 216 °C | Br.CN(C)C1CCc2[nH]c3ccc(NC(=O)C4CCC4)cc3c2C1 (stereo not shown) | –
40 | 207 to 208 °C | Cl.O=C(Nc1ccc2[nH]c3c(c2c1)CC(NCCc1ccccc1)CC3)c1ccc(F)cc1 (stereo not shown) | –
41 | 179 to 181 °C | CCN1CCC(c2c[nH]c3ccc(NS(C)(=O)=O)cc23)CC1 | –
42 | 178 to 180 °C | Cl.Oc1ccc2[nH]c3c(c2c1)CC(NCCc1ccccc1)CC3 (stereo not shown) | –
43 | 152 °C (dec.) | COc1cccc(C(=O)Nc2ccc3[nH]cc(C4CCN(C)CC4)c3c2)c1.O=C(O)/C=C/C(=O)O | –
44 | > 250 °C | CN1CC=C(c2c[nH]c3ccc(NC(=O)c4ccccc4)cc23)CC1 | –
45 | 103 to 104 °C | CN1CCC(c2c[nH]c3ccc(C(=O)c4ccc(N(C)C)cc4)cc23)CC1 | –
46 | 211 to 213 °C (dec.) | CC(C)N1CC=C(c2c[nH]c3ccc(NS(C)(=O)=O)cc23)CC1 | –
47 | 65 °C | CC(=O)c1ccc2[nH]cc(C3CCN(C)CC3)c2c1.Cl.O (hydrate or solvate) | –
48 | 124 to 128 °C | Cc1[nH]c2ccc(NS(C)(=O)=O)cc2c1C1CCN(C)CC1 | –
49 | 190 °C (dec.) | CN1CC=C(c2c[nH]c3ccc(NC(=O)c4ccco4)cc23)CC1 | –
50 | 153 to 155.5 °C | CN1CCC(c2c[nH]c3ccc(NC(=O)c4ccc5ccccc5c4)cc23)CC1 | –
51 | 88 to 92 °C (dec.) | CCC(=O)Nc1ccc2[nH]cc(C3CCN(C)CC3)c2c1.O=C(O)/C=C/C(=O)O | –
52 | 246 to 249 °C (dec.) | CN1CCC(c2c[nH]c3ccc(NS(=O)(=O)c4ccccc4)cc23)CC1 | –
53 | 252 °C | CN(C)[C@@H]1CCc2c([nH]c3ccc(Br)cc23)C1.I | –
54 | 181 to 182 °C | CC(=O)c1ccc2[nH]c3c(c2c1)CC(N(C)C)CC3 (stereo not shown) | –
55 | 161 to 165 °C (dec.) | CC(=O)Nc1ccc2[nH]cc(C3CCN(C)CC3)c2c1 | –
56 | 236 to 238 °C | Br.C=C(C)C(=O)Nc1ccc2[nH]c3c(c2c1)CC(N(C)C)CC3 (stereo not shown) | –
57 | 232 °C (dec.) | COc1ccc(C(=O)Nc2ccc3[nH]cc(C4=CCN(C)CC4)c3c2)cc1 | –
58 | 130 °C | CN1CCC(c2c[nH]c3ccc(NC(=O)c4ccccc4)cc23)CC1.O=C(O)C(=O)O | –
59 | 151 °C (dec.) | COc1ccc(C(=O)Nc2ccc3[nH]cc(C4CCN(C)CC4)c3c2)cc1.O=C(O)/C=C/C(=O)O | –
60 | 193 to 203 °C | CN1CCC(c2c[nH]c3ccc(NC(=O)c4cccc5ccccc45)cc23)CC1.Cl | –
61 | 224 to 226 °C | Br.CN(C)C1CCc2[nH]c3ccc(NC(=O)C4CCCCC4)cc3c2C1 (stereo not shown) | –

Row | melting point | Compound | further results
62 | 210 to 211 °C | Cl.O=C(Nc1ccc2[nH]c3c(c2c1)CC(NCCc1ccc(F)cc1)CC3)c1ccc(F)cc1 (stereo not shown) | –
63 | 119.1 °C | CN1CCC(c2c[nH]c3ccc(NS(C)(=O)=O)cc23)CC1.O=C(O)C(=O)O | –
64 | 251 to 253 °C | CC(C)n1cc(CCNC2CCc3[nH]c4ccc(O)cc4c3C2)cn1.Cl (stereo not shown) | –
65 | 252 to 255 °C | Cl.NC1CCc2[nH]c3ccc(NC(=O)c4ccc(F)cc4)cc3c2C1 (stereo not shown) | –
66 | 178 to 179 °C | CCN1CCC(c2c[nH]c3ccc(NC(=O)c4ccco4)cc23)CC1 | –
67 | 176 to 184 °C | Cc1[nH]c2ccc(NS(C)(=O)=O)cc2c1C1=CCN(C)CC1 | –
68 | 286 °C (dec.) | Cl.Cn1cc(CCNC2CCc3[nH]c4ccc(O)cc4c3C2)cn1 (stereo not shown) | –
69 | 160 °C (dec.) | Cl.Oc1ccc2[nH]c3c(c2c1)CC(NCCc1ccc(F)cc1)CC3 (stereo not shown) | –
70 | 230 °C (dec.) | NC1CCc2[nH]c3ccc(O)cc3c2C1 (stereo not shown) | –
71 | 104 to 108 °C | CC(C)N1CCC(c2c[nH]c3ccc(NS(C)(=O)=O)cc23)CC1 (as salt: salt) | –
72 | 229 to 233 °C (dec.) | CN1CC=C(c2c[nH]c3ccc(NC(=O)c4cccs4)cc23)CC1 | –
73 | 224 to 226 °C | CN1CC=C(c2c[nH]c3ccc(NC(=O)c4ccc(Cl)cc4)cc23)CC1 | –
74 | 159 to 162 °C | CN1CCC(c2c[nH]c3ccc(NC(=O)c4ccc(F)cc4Cl)cc23)CC1 | –
75 | 176 to 178 °C | CCS(=O)(=O)Nc1ccc2[nH]cc(C3CCN(C)CC3)c2c1 | –
76 | 127 to 135 °C (dec.) | CCN1CC=C(c2c[nH]c3ccc(NC(=O)c4ccc(F)cc4)cc23)CC1 | –
77 | 207 to 208 °C | CN1CC=C(c2c[nH]c3ccc(NS(=O)(=O)N(C)C)cc23)CC1 | –
78 | 179 to 181 °C (dec.) | CN1CCC(c2c[nH]c3ccc(NS(=O)(=O)N(C)C)cc23)CC1 | –
79 | 214 to 216 °C (dec.) | CN1CCC(c2c[nH]c3ccc(NC(=O)C(C)(C)C)cc23)CC1 | –
80 | 241 °C (dec.) | O=C(Nc1ccc2[nH]cc(C3=CCNCC3)c2c1)c1ccc(F)cc1 | –
81 | 186 to 189 °C | CC(=O)Nc1ccc2[nH]cc(C3=CCN(C)CC3)c2c1 | –
82 | 216 to 218 °C | Br.CN(C)C1CCc2[nH]c3ccc(NC(=O)C4CC4)cc3c2C1 (stereo not shown) | –
83 | 229 to 230 °C | O=C(Nc1ccc2[nH]cc(C3CCNCC3)c2c1)c1ccc(F)cc1 | –
84 | 87 to 90 °C | CCCN1CCC(c2c[nH]c3ccc(NS(C)(=O)=O)cc23)CC1 | –
